Earlier results, collected in US20050009922A1, “Stable aqueous antimicrobial suspension” (priority 2001, published 2005).

Details: in water, 25° C., FIG. 1

SMILES: N#CC(Br)(Br)C(N)=O [DBNPA, 2,2 dibromo 3-nitrilopropionamide]
- pH of lowest rate of hydrolysis: < 4 pH
